Test results reported in patent publication US20240342292A1, “Compounds for the Degradation of EGFR Kinase” (BeiGene Switzerland GmbH, priority 2021, published 2024).
Values belong to the compound of their own block, whether it stands above or below them.

Key:
[1] = biological target: T1, L858R/T790M/C797S EGFR (Homo sapiens, UniProt P00533, C797S/L858R/T790M); test: EGFR degradation HTRF assay in H1975-clone #25 (LTC) cells; format: cell-based; details: 16h treatment; for DC50: HTRF; for Dmax: NCI-H1975, H1975 # 25-LTC (L858R/T790M/C797S)
T1 construct: expressed in transfected cells; host or cells: H1975 clone #25 (lentiviral over-expression, endogenous EGFR knocked out by sgRNA)
Method in brief: (§1)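 H1975 clones stably overexpressing mutant EGFR by lentivirus, with endogenous EGFR knocked out by sgRNA and homozygosity confirmed by sequencing, were treated 16 h at 37 °C with compounds in 0.2% DMSO medium, 8 doses from 10 uM in 5-fold dilution. Lysates were read by HTRF (665/620 nm); DC50 came from a four-parameter fit.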

[2] = test system: Del19/T790M/C797S EGFR; test: EGFR degradation HTRF assay in H1975-clone #28 (DTC) cells; format: cell-based; details: H1975 # 28 DTC (Del19/T790M/C797S), 16h treatment; for DC50: HTRF; for Dmax (%): maximum percentage of degradation
Method in brief: as §1

[3] = H1975 # 25-LTC (L858R/T790M/C797S)
[4] = maximum percentage of degradation

Compound: Cc1cc2cc(n1)-c1cnn(C)c1OCCC[C@@H](C)CN1/C(=N/C2=O)Nc2ccc(C(=O)N3CCC4(CC3)CN(C(=O)C3CN(c5cc(F)c([C@H]6CCC(=O)NC6=O)c(F)c5)C3)C4)cc21 [Example 221, (R)-3-(2,6-difluoro-4-(3-(7-((R,E)-1^1,2^6,7-trimethyl-3-oxo-5^2,53-dihydro-1^1H,5^1H-11-oxa-4-aza-5(2,1)-benzo[d]imidazola-2(2,4)-pyridina-1(4,5)-pyrazolacycloundecaphane-5^6-carbonyl)-2,7-diazaspirononane-2-carbonyl)azetidin-1-yl)phenyl)piperidine-2,6-dione]
DC50 [1, 3]: 0.705 nM | Dmax [1, 4]: 94% | DC50 [2]: 0.901 nM | Dmax (%) [2]: 85.41%

Compound: CCN(C(=O)c1ccc2c(c1)N1C[C@H](C)CCCOc3c(cnn3C)-c3cc(cc(C)n3)C(=O)/N=C/1N2)C1CCN(C2CCN(c3cc(F)c([C@H]4CCC(=O)NC4=O)c(F)c3)CC2)CC1 [Example 288, (R,E)-N-(1′-(4-((R)-2,6-dioxopiperidin-3-yl)-3,5-difluorophenyl)-[1,4′-bipiperidin]-4-yl)-N-ethyl-1^1, 2^6,7-trimethyl-3-oxo-5^2,5^3-dihydro-1^1H,5^1H-11-oxa-4-aza-5(2,1)-benzo[d]imidazola-2(2,4)-pyridina-1(4,5)-pyrazolacycloundecaphane-5^6-carboxamide]
DC50 [1, 3]: 0.662 nM | Dmax [1, 4]: 92.8% | DC50 [2]: 0.488 nM | Dmax (%) [2]: 79.62%

Compound: Cc1cc2cc(n1)-c1cnn(C)c1OCCC[C@@H](C)CN1/C(=N/C2=O)Nc2ccc(C(=O)N3CCN(C(=O)[C@@H]4CCN(c5cc(F)c([C@H]6CCC(=O)NC6=O)c(F)c5)C4)CC3)cc21 [Example 96, (R)-3-(2,6-difluoro-4-((R)-3-(4-((R,E)-1^1,2^6,7-trimethyl-3-oxo-5^2,5^3-dihydro-1^1H,5^1H-11-oxa-4-aza-5(2,1)-benzo[d]imidazola-2(2,4)-pyridina-1(4,5)-pyrazolacycloundecaphane-5^6-carbonyl)piperazine-1-carbonyl)pyrrolidin-1-yl)phenyl)piperidine-2,6-dione]
DC50 [1, 3]: 0.6 nM | Dmax [1, 4]: 87.8% | DC50 [2]: 0.4 nM | Dmax (%) [2]: 84.3%

Compound: Cc1cc2cc(n1)-c1cnn(C)c1OCCC[C@@H](C)CN1/C(=N/C2=O)Nc2ccc(N3CC(NC4CCN(c5cc(F)c([C@H]6CCC(=O)NC6=O)c(F)c5)CC4)C3)cc21 [Example 454, (R)-3-(2,6-difluoro-4-(4-((1-((R,E)-1^1,2^6,7-trimethyl-3-oxo-5^2,5^3-dihydro-1^1H,5^1H-11-oxa-4-aza-5(2,1)-benzo[d]imidazola-2(2,4)-pyridina-1(4,5)-pyrazolacycloundecaphane-5-yl)azetidin-3-yl)amino)piperidin-1-yl)phenyl)piperidine-2,6-dione]
DC50 [1, 3]: 1.08 nM | Dmax [1, 4]: 86% | DC50 [2]: 0.765 nM | Dmax (%) [2]: 68.28%

Compound: COc1cc2cc(n1)-c1cnn(C)c1OCCC[C@@H](C)CN1/C(=N/C2=O)Nc2ccc(N3CCN(C4CCN(c5cc(F)c([C@H]6CCC(=O)NC6=O)c(F)c5)CC4)CC3)cc21 [Example 453, (R)-3-(2,6-difluoro-4-(4-(4-((R,E)-2^6-methoxy-1^1,7-dimethyl-3-oxo-5^2,5^3-dihydro-1^1H,5^1H-11-oxa-4-aza-5(2,1)-benzo[d]imidazola-2(2,4)-pyridina-1(4,5)-pyrazolacycloundecaphane-5^6-yl)piperazin-1-yl)piperidin-1-yl)phenyl)piperidine-2,6-dione]
DC50 [1, 3]: 3.17 nM | Dmax [1, 4]: 85.3% | DC50 [2]: 1.43 nM | Dmax (%) [2]: 82.83%

Compound: Cc1cc2cc(n1)-c1cnn(C)c1OCCC[C@@H](C)CN1/C(=N/C2=O)Nc2cc(C)c(CN3CCN(CC4CN(c5cc(F)c([C@H]6CCC(=O)NC6=O)c(F)c5)C4)CC3)cc21 [Example 147, (R)-3-(2,6-difluoro-4-(3-((4-(((R,E)-1^1,2^6,5,7-tetramethyl-3-oxo-5^2,5′-dihydro-1^1H,5^1H-11-oxa-4-aza-5(2,1)-benzo[d]imidazola-2(2,4)-pyridina-(4,5)-pyrazolacycloundecaphane-5^6-yl)methyl)piperazin-1-yl)methyl)azetidin-1-yl)phenyl)piperidine-2,6-dione]
DC50 [1, 3]: 1.83 nM | Dmax [1, 4]: 81.4% | DC50 [2]: 2.41 nM | Dmax (%) [2]: 69.47%

Compound: Cc1cc2cc(n1)-c1cnn(C)c1OCCC[C@@H](C)CN1/C(=N/C2=O)Nc2ccc(N3CCN([C@H]4CCN(c5ccc([C@H]6CCC(=O)NC6=O)nc5C)C[C@@H]4F)CC3)cc21 [Example 440, (R)-3-(5-((3S,4S)-3-fluoro-4-(4-((R,L)-1^1,2^6,7-trimethyl-3-oxo-5^2,5′-dihydro-1^1H,5^1H-11-oxa-4-aza-5(2,1)-benzo[d]imidazola-2(2,4)-pyridina-1(4,5)-pyrazolacycloundecaphane-5^6-yl)piperazin-1-yl)piperidin-1-yl)-6-methylpyridin-2-yl)piperidine-2,6-dione]
DC50 [1, 3]: 0.936 nM | Dmax [1, 4]: 93.5% | DC50 [2]: 0.884 nM | Dmax (%) [2]: 85.39%

Compound: Cc1cc2cc(n1)-c1cnn(C)c1OCCC[C@@H](C)CN1/C(=N/C2=O)Nc2ccc(C(=O)N(C3CC3)C3CCN(CCc4cc(F)c([C@H]5CCC(=O)NC5=O)c(F)c4)CC3)cc21 [Example 239, (R,E)-N-cyclopropyl-N-(1-(4-((R)-2,6-dioxopiperidin-3-yl)-3,5-difluorophenethyl)piperidin-4-yl)-1^1, 2^6,7-trimethyl-3-oxo-5^2,5^3-dihydro-1^1H,5^1H-11-oxa-4-aza-5(2,1)-benzo[d]imidazola-2(2,4)-pyridina-1(4,5)-pyrazolacycloundecaphane-5^6-carboxamide]
DC50 [1, 3]: 0.604 nM | Dmax [1, 4]: 87.9% | DC50 [2]: 0.205 nM | Dmax (%) [2]: 83.87%

Compound: Cc1cc2cc(n1)-c1cnn(C)c1OCCC[C@@H](C)CN1/C(=N/C2=O)Nc2ccc(C(=O)N[C@@H]3C[C@H]4CC[C@@H](C3)N4CCc3cc(F)c([C@H]4CCC(=O)NC4=O)c(F)c3)cc21 [Example 264, (R,E)-N—((1R,3S,5S)-8-(4-((R)-2,6-dioxopiperidin-3-yl)-3,5-difluorophenethyl)-8-azabicyclo[3.2.1]octan-3-yl)-1^1,2^6,7-trimethyl-3-oxo-5^2,5^3-dihydro-1^1H,5^1H-11-oxa-4-aza-5(2,1)-benzo[d]imidazola-2(2,4)-pyridina-1(4,5)-pyrazolacycloundecaphane-5^6-carboxamide]
DC50 [1, 3]: 0.546 nM | Dmax [1, 4]: 89.8% | DC50 [2]: 0.677 nM | Dmax (%) [2]: 68.8%

Stronger by DC50 [1, 3], values ahead:

DC50 [1, 3]: 0.5 nM | Dmax [1, 4]: 90.6% | DC50 [2]: 0.7 nM
Compound: Cc1cc2cc(n1)-c1cnn(C)c1OCCC[C@@H](C)CN1/C(=N/C2=O)Nc2ccc(CN3CCN(C(=O)C4CN(c5ccc(F)c6c5n(C)c(=O)n6C5CCC(=O)NC5=O)C4)CC3)cc21 (stereo partly drawn) [Example 94, 3-(7-fluoro-3-methyl-2-oxo-4-(3-(4-(((R,E)-1^1,2^6,7-trimethyl-3-oxo-5^2,5^3-dihydro-1^1H,5^1H-11-oxa-4-aza-5(2,1)-benzo[d]imidazola-2(2,4)-pyridina-1(4,5)-pyrazolacycloundecaphane-5^6-yl)methyl)piperazine-1-carbonyl)azetidin-1-yl)-2,3-dihydro-1H-benzo[d]imidazol-1-yl)piperidine-2,6-dione]
Dmax (%) [2]: 80.5%

DC50 [1, 3]: 0.429 nM | Dmax [1, 4]: 92.5% | DC50 [2]: 0.614 nM
Compound: Cc1cc2cc(n1)-c1cnn(C)c1OCCC[C@@H](C)CN1/C(=N/C2=O)Nc2ccc(C(=O)N[C@H]3CCN(CCc4cc(F)c([C@H]5CCC(=O)NC5=O)c(F)c4)[C@@H](C)C3)cc21 [Example 270, (R,E)-N—((2S,4S)-1-(4-((R)-2,6-dioxopiperidin-3-yl)-3,5-difluorophenethyl)-2-methylpiperidin-4-yl)-1^1,2^6,7-trimethyl-3-oxo-5^2,5^3-dihydro-1^1H,5^1H-11-oxa-4-aza-5(2,1)-benzo[d]imidazola-2(2,4)-pyridina-1(4,5)-pyrazolacycloundecaphane-5^6-carboxamide]
Dmax (%) [2]: 81.16%

DC50 [1, 3]: 0.386 nM | Dmax [1, 4]: 92.8% | DC50 [2]: 0.62 nM
Compound: Cc1cc2cc(n1)-c1cnn(C)c1OCCC[C@@H](C)CN1/C(=N/C2=O)Nc2ccc(C(=O)N(C)[C@@H]3CCN(CCc4cc(F)c([C@H]5CCC(=O)NC5=O)c(F)c4)C[C@@H]3F)cc21 [Example 344, (R,E)-N—((3S,4R)-1-(4-((R)-2,6-dioxopiperidin-3-yl)-3,5-difluorophenethyl)-3-fluoropiperidin-4-yl)-N,1^1,2^6,7-tetramethyl-3-oxo-5^2,5^3-dihydro-1^1H,5^1H-11-oxa-4-aza-5(2,1)-benzo[d]imidazola-2(2,4)-pyridina-1(4,5)-pyrazolacycloundecaphane-5^6-carboxamide]
Dmax (%) [2]: 83.22%

DC50 [1, 3]: 0.28 nM | Dmax (%) ([1]; H1975 # 25-LTC (L858R/T790M/C797S), maximum percentage of degradation): 91.69% | DC50 [2]: 0.587 nM
Compound: (R,E)-N—((S)-1-(4-((R)-2,6-dioxopiperidin-3-yl)-3,5-difluorophenethyl)azepan-4-yl)-N,1^1,2^6,7-tetramethyl-3-oxo-5^2,5^3-dihydro-1^1H,5^1H-11-oxa-4-aza-5(2,1)-benzo[d]imidazola-2(2,4)-pyridina-1(4,5)-pyrazolacycloundecaphane-5^6-carboxamide [Example 340]
Dmax (%) [2]: 83.73%
